Assay results from ChEMBL document CHEMBL3608277 (ACS Med Chem Lett, 2015).
Activity calls are given as the source filed them. No cut-off for these calls is given here.

What was measured:
[1] = system: Human immunodeficiency virus; test: Resistance index, ratio of EC50 for […] HIV containing reverse transcriptase K103N/Y181C mutation to EC50 for wild type HIV; type: functional
[2] = system: Human immunodeficiency virus 1; test: Antiviral activity against HIV1 3B infected in CD4/CXCR4 expressing human MAGI cells incubated for 48 hrs by beta-galactosidase reporter gene assay; type: functional, organism-based; conditions: Human immunodeficiency virus 1, 3B
[3] = system: Human immunodeficiency virus 1; test: Antiviral activity against HIV1 BaL infected in CD4/CCR5 expressing human MAGI cells incubated for 48 hrs by beta-galactosidase reporter gene assay; type: functional, organism-based; conditions: Human immunodeficiency virus 1, BaL
[4] = biological target: C-X-C chemokine receptor type 4 (Homo sapiens) (UniProt P61073); test: Inhibition of CXCR4 in human Jurkat cells assessed as reduction in HIV-Nef-M1-induced mitochondrial membrane depolarization at 0.01 to 100 uM by JC1 dye based fluorescence depolarization assay; type: cell-based
[5] = Toxicity against human HeLa67 cells; type: cell-based
[6] = biological target: T1, C-C chemokine receptor type 5 (Homo sapiens, UniProt P51681); test: Displacement of [125I]-MIP-1beta form CCR5 (unknown origin) at 100 uM
Target sequence in this assay (P51681 whole entry, looked up): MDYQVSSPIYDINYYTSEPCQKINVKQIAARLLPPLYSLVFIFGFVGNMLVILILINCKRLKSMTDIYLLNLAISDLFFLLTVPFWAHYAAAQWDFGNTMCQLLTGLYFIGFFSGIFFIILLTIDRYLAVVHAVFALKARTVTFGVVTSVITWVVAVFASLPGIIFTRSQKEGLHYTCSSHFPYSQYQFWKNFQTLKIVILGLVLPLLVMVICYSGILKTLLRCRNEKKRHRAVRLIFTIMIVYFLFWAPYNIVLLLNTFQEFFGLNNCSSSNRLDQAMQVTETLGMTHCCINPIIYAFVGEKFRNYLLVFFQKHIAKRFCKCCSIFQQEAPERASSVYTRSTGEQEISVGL

[7] = biological target: T1, C-C chemokine receptor type 5; test: Displacement of [125I]-MIP-1beta form CCR5 (unknown origin) at 1 mM
Target sequence in this assay (P51681 whole entry, looked up): as above

[8] = Inhibition of HIV pNL4-3 heterodimeric reverse transcriptase p66/p51 incubated at 37 degC for 1 hr by scintillation counting method; set-up: species or system Human immunodeficiency virus
[9] = biological target: C-X-C chemokine receptor type 4 (Homo sapiens) (UniProt P61073); test: Displacement of [125I]-SDF1 form CXCR4 (unknown origin) at 1 mM
[10] = Toxicity against HEK293 cells derived ACTOne-X4 cells; type: cell-based; conditions: human
[11] = system: Human immunodeficiency virus; test: Antiviral activity against wild type HIV; type: functional, organism-based; conditions: Human immunodeficiency virus 1
[12] = Toxicity against human PBMC by MTS assay; type: cell-based; conditions: read-out: TC50 (the source's name)
[13] = system: Human immunodeficiency virus; test: Antiviral activity against NNRTI-resistant HIV containing reverse transcriptase K103N/Y181C mutation; type: functional, organism-based; conditions: Human immunodeficiency virus 1
[14] = Toxicity against human MAGI cells incubated for 48 hrs by MTS assay; type: cell-based; conditions: read-out: TC50
[15] = system: Human immunodeficiency virus 1; test: Antiviral activity against HIV1 BaL infected in CD4/CCR5 expressing human PBMC cells by reverse transcriptase activity and/or p24 antigen content detection based assay; type: functional, organism-based; conditions: Human immunodeficiency virus 1, BaL
[16] = system: Human immunodeficiency virus 2; test: Antiviral activity against HIV2 CDC310319 infected in human PBMC cells; type: functional, organism-based; conditions: Human immunodeficiency virus 2, CDC310319, PBMC
[17] = system: Human immunodeficiency virus 1; test: Antiviral activity against HIV1 3B infected in CD4/CXCR4 expressing human PBMC cells by reverse transcriptase activity and/or p24 antigen content detection based assay; type: functional, organism-based; conditions: Human immunodeficiency virus 1, 3B
[18] = biological target: T1, C-C chemokine receptor type 5; test: Displacement of [125I]-MIP-1beta form CCR5 (unknown origin)
Target sequence in this assay (P51681 whole entry): as the sequence (P51681 whole entry, looked up) above

Sequence of C-X-C chemokine receptor type 4 (Homo sapiens) (P61073 whole entry): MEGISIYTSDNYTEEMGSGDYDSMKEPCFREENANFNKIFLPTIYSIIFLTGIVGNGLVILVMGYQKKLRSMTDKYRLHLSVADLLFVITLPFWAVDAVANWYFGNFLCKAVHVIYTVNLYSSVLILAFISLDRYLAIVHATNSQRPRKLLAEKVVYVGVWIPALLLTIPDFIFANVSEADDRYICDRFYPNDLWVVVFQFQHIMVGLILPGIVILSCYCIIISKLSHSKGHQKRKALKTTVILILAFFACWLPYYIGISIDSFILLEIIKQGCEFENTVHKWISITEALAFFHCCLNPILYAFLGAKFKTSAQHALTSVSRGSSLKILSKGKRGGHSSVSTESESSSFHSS

| SMILES | IC50 [2] [µM] | IC50 [3] [µM] | other results |
| --- | --- | --- | --- |
| O=C1Nc2ccc(Cl)cc2[C@@](C#CC2CC2)(C(F)(F)F)O1 [EFAVIRENZ] |  |  | Ratio EC50 [1]: 70 |
| c1ccc(-c2cn[nH]c2C2CCN(Cc3cccnc3)CC2)cc1 | 44 | 64 |  |
| CCc1cc(CN2CCC(c3[nH]ncc3Cc3ccccc3)CC2)[nH]n1 | 68 | 60 |  |
| Cc1cn([C@H]2C[C@H](N=[N+]=[N-])[C@@H](CO)O2)c(=O)[nH]c1=O |  |  | inhibition [4]: inactive |
| Cc1ccc(-c2ccc3c(c2)C=C(C(=O)Nc2ccc(C[N+](C)(C)C4CCOCC4)cc2)CCC3)cc1.[Cl-] |  |  | Activity [5]: Toxic |
| c1cc(CN2CCCNCCNCCCNCC2)ccc1CN1CCCNCCNCCCNCC1 |  |  | inhibition [4]: Active |
| c1ccc(Cc2cn[nH]c2C2CCN(Cc3ccncc3)CC2)cc1 | 0.8 | 3.8 | inhibition [6]: 38%; inhibition [7]: 88%; IC50 [8]: 9 µM; inhibition [9]: 0%; CC50 [10]: > 200 µM; EC50 [11]: 0.9 µM; CC50 [12]: > 100 µM; EC50 [13]: 19 µM; CC50 at 48 h [14]: > 300 µM; IC50 [15]: 2.3 µM; IC50 [16]: 31 µM; IC50 [17]: 2.3 µM |
| Cc1nnc(C(C)C)n1[C@H]1C[C@H]2CC[C@@H](C1)N2CC[C@H](NC(=O)C1CCC(F)(F)CC1)c1ccccc1 |  |  | inhibition [4]: inactive |

Continued, in another order:

| IC50 [2] [µM] | IC50 [3] [µM] | SMILES | other results |
| --- | --- | --- | --- |
| 13 | 17 | Nc1cc(CN2CCC(c3[nH]ncc3Cc3ccccc3)CC2)ncn1 |  |
| 81 | 83 | Nc1ccnc(CN2CCC(c3[nH]ncc3Cc3ccccc3)CC2)n1 |  |
| 6.4 | 13 | CC(C)c1nccc(CN2CCC(c3[nH]ncc3Cc3ccccc3)CC2)n1 |  |
| 5.8 | 16 | c1ccc(Cc2cn[nH]c2C2CCN(Cc3cccnc3)CC2)cc1 |  |
| 25 | 17 | c1ccc(Cc2cn[nH]c2C2CCN(Cc3ccccn3)CC2)cc1 |  |
| 57 | 66 | CCc1nccc(CN2CCC(c3[nH]ncc3Cc3ccccc3)CC2)n1 |  |
| > 200 | 72 | COc1ncc(CN2CCC(c3[nH]ncc3Cc3ccccc3)CC2)cn1 | IC50 [18]: 70 µM |
| 105 | 95 | Nc1ncc(N2CCC(c3[nH]ncc3Cc3ccccc3)CC2)cn1 |  |
